Each block holds one compound with its values, some of them ahead of it. Activity calls are given as the source filed them. The calls are words filed in the database; no cut-off is given here.
Tests used:
[1] = target: NACHT, LRR and PYD domains-containing protein 3 (Mus musculus) (UniProt Q8R4B8); experiment: Binding affinity to NLRP3 in mouse RAW264.7 cells assessed as increase in mean fluorescence intensity at 10 uM preincubated with LPS for 3 hrs followed by compound addition and measured after 30 mins by beckman coulter based flow cytometry analysis; format: cell-based
NACHT, LRR and PYD domains-containing protein 3 (Mus musculus), sequence (Q8R4B8 whole entry, the tested form may be a part): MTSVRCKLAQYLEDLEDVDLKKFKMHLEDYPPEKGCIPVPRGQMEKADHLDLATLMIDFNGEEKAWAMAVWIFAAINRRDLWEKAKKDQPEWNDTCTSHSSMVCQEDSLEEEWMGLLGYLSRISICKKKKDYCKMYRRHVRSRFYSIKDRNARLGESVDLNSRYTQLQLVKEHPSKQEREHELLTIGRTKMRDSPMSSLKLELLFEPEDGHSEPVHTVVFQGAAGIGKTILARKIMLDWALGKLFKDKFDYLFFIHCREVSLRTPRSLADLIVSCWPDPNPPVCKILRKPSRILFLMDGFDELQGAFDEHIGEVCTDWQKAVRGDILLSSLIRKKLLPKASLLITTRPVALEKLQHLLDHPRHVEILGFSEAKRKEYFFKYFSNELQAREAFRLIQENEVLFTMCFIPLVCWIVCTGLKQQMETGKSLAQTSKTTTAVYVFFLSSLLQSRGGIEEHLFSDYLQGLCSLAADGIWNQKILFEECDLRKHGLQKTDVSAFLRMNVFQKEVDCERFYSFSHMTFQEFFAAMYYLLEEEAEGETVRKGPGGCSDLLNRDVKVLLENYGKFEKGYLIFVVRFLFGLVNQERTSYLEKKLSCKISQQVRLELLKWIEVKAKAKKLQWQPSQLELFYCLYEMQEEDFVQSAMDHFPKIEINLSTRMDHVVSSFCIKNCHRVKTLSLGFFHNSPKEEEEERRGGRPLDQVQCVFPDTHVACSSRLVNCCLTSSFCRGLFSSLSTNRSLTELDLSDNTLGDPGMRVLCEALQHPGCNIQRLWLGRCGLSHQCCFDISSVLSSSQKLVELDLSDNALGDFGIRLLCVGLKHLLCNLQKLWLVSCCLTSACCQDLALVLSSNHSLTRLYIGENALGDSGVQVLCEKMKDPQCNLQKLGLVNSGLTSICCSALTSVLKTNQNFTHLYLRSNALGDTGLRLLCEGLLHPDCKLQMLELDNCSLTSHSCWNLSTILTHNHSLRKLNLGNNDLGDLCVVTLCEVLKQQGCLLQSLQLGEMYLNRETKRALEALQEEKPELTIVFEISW

[2] = Cytotoxicity against human THP-1 assessed as reduction in cell viability measured after 72 hrs by CCK-8 assay; format: toxicity, cell-based; details: THP-1 cells
[3] = target: NACHT, LRR and PYD domains-containing protein 3 (Mus musculus) (UniProt Q8R4B8); experiment: Binding affinity to NLRP3 in mouse RAW264.7 cells assessed as thermal stabilization at 100 uM at 52 to 56 degreeC incubated for 6 hrs by cellular thermal shift assay; format: cell-based
[4] = Fluorescence property of the compound in DMSO assessed as molar extinction coefficient; format: physicochemical
[5] = target: NACHT, LRR and PYD domains-containing protein 3 (Mus musculus) (UniProt Q8R4B8); experiment: Binding affinity to NLRP3 in mouse RAW264.7 cells assessed as increase in mean fluorescence intensity at 10 uM incubated for 30 mins by beckman coulter based flow cytometry analysis; format: cell-based
[6] = Drug distribution in cytoplasm of mouse RAW264.7 cells expressing NLRP3 assessed as increase in green fluorescence at 10 uM incubated for 0.5 hrs by Hoechst 33342 staining based confocal microscopic analysis; format: ADME, subcellular; details: raw264.7, 0.5 h
[7] = Fluorescence property of the compound in DMSO assessed as quantum yield; format: physicochemical
[8] = Fluorescence property of the compound in DMSO assessed as maximum absorption wavelength; format: physicochemical
[9] = Fluorescence property of the compound in DMSO assessed as maximum emission wavelength; format: physicochemical
[10] = target: NACHT, LRR and PYD domains-containing protein 3 (Homo sapiens, UniProt Q96P20); experiment: Inhibition of NLRP3 inflammasome activation in PMA differentiated LPS-primed human THP-1 cells assessed as reduction in nigericin-induced IL-1beta level pretreated for 2 hrs followed by nigericin addition and measured after 30 mins by ELISA; format: cell-based
NACHT, LRR and PYD domains-containing protein 3, sequence (Q96P20 whole entry, the tested form may be a part): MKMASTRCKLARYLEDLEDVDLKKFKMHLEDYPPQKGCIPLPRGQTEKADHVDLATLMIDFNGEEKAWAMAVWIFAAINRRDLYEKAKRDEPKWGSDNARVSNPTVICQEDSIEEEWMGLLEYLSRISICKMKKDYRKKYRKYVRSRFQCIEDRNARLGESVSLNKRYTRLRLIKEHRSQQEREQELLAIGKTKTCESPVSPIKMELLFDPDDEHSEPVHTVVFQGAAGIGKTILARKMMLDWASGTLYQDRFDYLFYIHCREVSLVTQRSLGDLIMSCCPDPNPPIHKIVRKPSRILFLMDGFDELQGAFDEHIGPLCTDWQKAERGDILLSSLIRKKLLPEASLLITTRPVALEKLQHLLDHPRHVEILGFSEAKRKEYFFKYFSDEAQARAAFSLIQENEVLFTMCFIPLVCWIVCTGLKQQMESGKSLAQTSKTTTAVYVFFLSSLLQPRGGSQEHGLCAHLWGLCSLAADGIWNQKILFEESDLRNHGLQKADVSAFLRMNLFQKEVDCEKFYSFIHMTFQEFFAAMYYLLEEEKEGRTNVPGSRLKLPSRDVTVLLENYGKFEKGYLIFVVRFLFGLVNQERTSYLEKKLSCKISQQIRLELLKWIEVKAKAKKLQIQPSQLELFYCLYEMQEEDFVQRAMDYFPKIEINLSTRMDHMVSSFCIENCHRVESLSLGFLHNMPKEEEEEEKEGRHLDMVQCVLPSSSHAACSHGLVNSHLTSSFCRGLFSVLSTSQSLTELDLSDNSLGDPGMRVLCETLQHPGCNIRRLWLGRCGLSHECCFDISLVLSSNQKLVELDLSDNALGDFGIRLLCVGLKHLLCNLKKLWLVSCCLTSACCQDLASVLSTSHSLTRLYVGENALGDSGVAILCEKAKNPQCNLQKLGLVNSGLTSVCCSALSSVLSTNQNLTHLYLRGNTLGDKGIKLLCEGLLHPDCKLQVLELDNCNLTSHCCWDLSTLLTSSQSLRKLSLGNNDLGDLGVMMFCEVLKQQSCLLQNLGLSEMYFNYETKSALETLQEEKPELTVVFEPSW

Activity [1]: Active
Activity [3]: Active
Activity [4]: 8085 M⁻¹ cm⁻¹
Activity [5]: Active
Drug uptake [6]: Active
Activity [7]: 6%
Activity [8]: 450 nm
Activity [9]: 602 nm
Structure (SMILES): CN(C)c1ccc(S(=O)(=O)NC(=O)Nc2c3c(cc4c2CCC4)CCC3)c2nsnc12
CC50 at 72 h [2]: > 100 µM

Structure (SMILES): O=C(Nc1c2c(cc3c1CCC3)CCC2)NS(=O)(=O)c1ccc(NC2CC(F)(F)C2)c2nonc12
CC50 at 72 h [2]: > 100 µM

IC50 [10]: 9.18 µM
Structure (SMILES): CN(C)c1cccc2c(S(=O)(=O)NC(=O)Nc3c4c(cc5c3CCC5)CCC4)cccc12
CC50 at 72 h [2]: > 100 µM

Structure (SMILES): CSc1ccc(S(=O)(=O)NC(=O)Nc2c3c(cc4c2CCC4)CCC3)c2nonc12
CC50 at 72 h [2]: > 100 µM

Structure (SMILES): CN(C)c1ccc(S(=O)(=O)NC(=O)Nc2c3c(cc4c2CCC4)CCC3)c2n[se]nc12
CC50 at 72 h [2]: > 100 µM

Structure (SMILES): O=C(Nc1c2c(cc3c1CCC3)CCC2)NS(=O)(=O)c1ccc(N2C[C@@H]3[C@@H](CO)[C@@H]3C2)c2nonc12
CC50 at 72 h [2]: > 100 µM

Structure (SMILES): O=C(Nc1c2c(cc3c1CCC3)CCC2)NS(=O)(=O)c1ccc(Cl)c2nonc12
CC50 at 72 h [2]: > 100 µM

Structure (SMILES): CC(C)(C)OC(=O)NC1CN(c2ccc(S(=O)(=O)NC(=O)Nc3c4c(cc5c3CCC5)CCC4)c3nonc23)C1
CC50 at 72 h [2]: > 100 µM

IC50 [10]: 2.38 µM
Structure (SMILES): O=C(Nc1c2c(cc3c1CCC3)CCC2)NS(=O)(=O)c1ccc(N2CCN(CCO)CC2)c2nonc12
CC50 at 72 h [2]: > 100 µM

Activity [3]: Active
Activity [4]: 7406 M⁻¹ cm⁻¹
Activity [7]: 16%
Activity [8]: 448 nm
Activity [9]: 586 nm
Structure (SMILES): CN(C)c1ccc(S(=O)(=O)NC(=O)Nc2c3c(cc4c2CCC4)CCC3)c2nonc12
CC50 at 72 h [2]: > 100 µM

Structure (SMILES): CN(C)[C@@H]1CCCC[C@H]1N(C)c1ccc(S(=O)(=O)NC(=O)Nc2c3c(cc4c2CCC4)CCC3)c2nonc12
CC50 at 72 h [2]: > 100 µM

Structure (SMILES): O=C(Nc1c2c(cc3c1CCC3)CCC2)NS(=O)(=O)c1ccc(N2CC3CCC(C2)O3)c2nonc12
CC50 at 72 h [2]: > 100 µM

Structure (SMILES): CC(C)(O)c1coc(S(=O)(=O)NC(=O)Nc2c3c(cc4c2CCC4)CCC3)c1
CC50 at 72 h [2]: 81.4 µM

Structure (SMILES): O=C(Nc1c2c(cc3c1CCC3)CCC2)NS(=O)(=O)c1ccc(N2CCOCC2)c2nonc12
CC50 at 72 h [2]: > 100 µM

Reference: ChEMBL document CHEMBL5120824, “Synthesis and pharmacological validation of fluorescent diarylsulfonylurea analogues as NLRP3 inhibitors and imaging probes” (Eur J Med Chem, 2022)
